According to publication PMC7853427 (Journal of the American Chemical Society, 2021):

Target: E. coli PheRS (Escherichia coli, UniProt P08312)
Test: inhibition of Phe activation by purified PheRS
Format: biochemical

Chain of E. coli PheRS (P08312 whole entry): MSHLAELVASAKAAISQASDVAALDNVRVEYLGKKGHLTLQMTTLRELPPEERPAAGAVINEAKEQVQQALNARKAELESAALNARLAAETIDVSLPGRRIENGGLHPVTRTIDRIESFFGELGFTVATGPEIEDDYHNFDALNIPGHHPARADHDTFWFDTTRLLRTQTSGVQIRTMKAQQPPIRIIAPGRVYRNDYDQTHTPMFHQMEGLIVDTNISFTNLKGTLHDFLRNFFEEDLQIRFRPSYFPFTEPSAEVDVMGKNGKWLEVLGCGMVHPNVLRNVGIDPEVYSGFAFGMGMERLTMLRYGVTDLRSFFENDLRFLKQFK
Chain of E. coli PheRS (P07395 whole entry partner): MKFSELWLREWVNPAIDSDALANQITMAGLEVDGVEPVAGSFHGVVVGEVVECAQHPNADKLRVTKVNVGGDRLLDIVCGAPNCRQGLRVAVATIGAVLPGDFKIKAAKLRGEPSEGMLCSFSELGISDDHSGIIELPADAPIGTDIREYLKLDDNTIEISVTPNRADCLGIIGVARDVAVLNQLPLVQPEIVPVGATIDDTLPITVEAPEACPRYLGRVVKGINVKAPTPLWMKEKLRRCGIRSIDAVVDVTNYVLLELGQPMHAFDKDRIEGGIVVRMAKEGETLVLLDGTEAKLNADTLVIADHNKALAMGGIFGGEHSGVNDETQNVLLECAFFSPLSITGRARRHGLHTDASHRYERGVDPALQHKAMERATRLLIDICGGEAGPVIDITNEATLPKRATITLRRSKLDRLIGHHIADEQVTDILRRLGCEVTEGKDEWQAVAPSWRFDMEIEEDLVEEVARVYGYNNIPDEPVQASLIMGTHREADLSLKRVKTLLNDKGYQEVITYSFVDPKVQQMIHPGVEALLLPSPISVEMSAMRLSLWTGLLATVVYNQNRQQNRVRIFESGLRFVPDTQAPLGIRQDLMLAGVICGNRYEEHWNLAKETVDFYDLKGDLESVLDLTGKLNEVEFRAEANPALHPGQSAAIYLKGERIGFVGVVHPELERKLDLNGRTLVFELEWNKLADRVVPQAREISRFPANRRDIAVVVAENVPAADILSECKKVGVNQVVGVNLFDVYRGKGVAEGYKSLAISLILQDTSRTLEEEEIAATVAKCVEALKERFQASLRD

SMILES: CC(Cc1ccccc1)NCc1ccccc1 (stereo not shown) [compound 20, norbenzamphetamine]
- IC50: 169 µM
